# Data published in patent publication US20050101595A1, “N-containing cycloalkyl-substituted amino-thiazole derivatives and pharmaceutical compositions for inhibiting cell proliferation and methods for their use” (PFIZER INC., priority 2003, published 2005).
# pIC50, pKi: −log10 of the molar value. Counter-ions that a name gives are not always drawn.
# Columns and labels:
# HCT-116 cell line = assay: Inhibition of cell growth, tetrazolium salt (MTT) assay; assay type: cell-based; details: Homo sapiens, MTT; for inhibition at 0.175 µM: HCT-116, HCT-116 cells, compound at 0.175 uM; for pIC50: HCT-116, 120 h, first HCT-116 column (c4), three to five days, read-out: HCT-116 IC50
# Summary of the method: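 First, cells were seeded in McCoy's 5A medium and held 4 h. Next, inhibitor concentrations in 0.5% (v/v) DMSO were applied for three to five days at 37° C, 5% CO2. Finally, after 4 h with 0.2 mg/mL MTT and medium removal, solubilized formazan was measured at 540 nm.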
# CDK2/Cyclin A = CDK2/Cyclin A (Homo sapiens, UniProt P24941); assay: Inhibition of CDK2/Cyclin A Retinoblastoma Kinase Activity; assay type: biochemical; details: for inhibition at 0.05 µM: read-out: % inhibition of CDK2 (@ 0.05 μM), compound at 0.05 μM; for pKi: apparent Ki, CDK2/proteolyzed cyclin A, Rb fragment substrate, 25 μM ATP
# Summary of the method: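 Percent inhibition is calculated against DMSO-only wells after subtracting no-enzyme background. The enzyme is human CDK2 complexed with proteolyzed cyclin A, used at 10 nM or 19 nM on an Rb fragment with 25 μM [32/33P]ATP, at pH 7.4 and 30° C.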
Structure (SMILES),inhibition at 0.175 µM (HCT-116 cell line) [%],inhibition at 0.05 µM (CDK2/Cyclin A) [%],pIC50 (HCT-116 cell line),pKi (CDK2/Cyclin A)
CCN(CCO)CCCS(=O)(=O)N1CCC(Nc2nc(N)c(C(=O)c3c(F)cccc3F)s2)CC1 [Example V51],0,79,,
CCN1CCN(CCCS(=O)(=O)N2CCC(Nc3nc(N)c(C(=O)c4c(F)cccc4F)s3)CC2)CC1 [Example V59],7,72,,
CC(CN(C)C)NCCCS(=O)(=O)N1CCC(Nc2nc(N)c(C(=O)c3c(F)cccc3F)s2)CC1 (stereo not shown) [Example V126],6,84,,
CCN(CC)CCN(C)CCCS(=O)(=O)N1CCC(Nc2nc(N)c(C(=O)c3c(F)cccc3F)s2)CC1 [Example V33],16,76,,
Nc1nc(NC2CCN(S(=O)(=O)CCCN3CCCC(O)C3)CC2)sc1C(=O)c1c(F)cccc1F (stereo not shown) [Example V77],7,72,,
CCC(COC)NCCCS(=O)(=O)N1CCC(Nc2nc(N)c(C(=O)c3c(F)cccc3F)s2)CC1 (stereo not shown) [Example V97],28,81,,
CCN(CCCS(=O)(=O)N1CCC(Nc2nc(N)c(C(=O)c3c(F)cccc3F)s2)CC1)CCOC [Example V130],36,75,,
NC(=O)C1CCCN(CCCS(=O)(=O)N2CCC(Nc3nc(N)c(C(=O)c4c(F)cccc4F)s3)CC2)C1 (stereo not shown) [Example V16],5,80,,
"Nc1nc(NC2CCN(S(=O)(=O)CCCNCc3ccccc3F)CC2)sc1C(=O)c1c(F)cccc1F [Example V183, (4-Amino-2-{[1-({3-[(2-fluorobenzyl)amino]propyl}sulfonyl)-4-piperidinyl]amino}-1,3-thiazol-5-yl)(2,6-difluorophenyl)methanone.]",,,7.05,8.40
COC1CCN(CCCS(=O)(=O)N2CCC(Nc3nc(N)c(C(=O)c4c(F)cccc4F)s3)CC2)CC1 [Example V171],65,81,,
CN1CCN(CCCS(=O)(=O)N2CCC(Nc3nc(N)c(C(=O)c4c(F)cccc4F)s3)CC2)CC1 [Example V35],17,72,,
"Nc1nc(NC2CCN(S(=O)(=O)CCCNc3ccccn3)CC2)sc1C(=O)c1c(F)cccc1F [Example K56, (4-Amino-2-{1-[3-(pyridin-2-ylamino)-propane-1-sulfonyl]-piperidin-4-ylamino}-thiazol-5-yl)-(2,6-difluoro-phenyl)-methanone. Trifluoroacetic Acid Salt]",,,5.58,8.10
NC(=O)[C@@H]1CCCN1CCCS(=O)(=O)N1CCC(Nc2nc(N)c(C(=O)c3c(F)cccc3F)s2)CC1 [Example V87],3,80,,
CC1CN(CCCS(=O)(=O)N2CCC(Nc3nc(N)c(C(=O)c4c(F)cccc4F)s3)CC2)CC(C)O1 (stereo not shown) [Example V31],48,83,,
"Nc1nc(NC2CCN(S(=O)(=O)CCCNCc3cccc(F)c3)CC2)sc1C(=O)c1c(F)cccc1F [Example V178, (4-Amino-2-{[1-({3-[(3-fluorobenzyl)amino]propyl}sulfonyl)-4-piperidinyl]amino}-1,3-thiazol-5-yl)(2,6-difluorophenyl)methanone.]",,,7.10,8.34
Cc1ccccc1CNCCCS(=O)(=O)N1CCC(Nc2nc(N)c(C(=O)c3c(F)cccc3F)s2)CC1 [Example V27],86,93,,
Nc1nc(NC2CCN(S(=O)(=O)CCCNCCc3cccs3)CC2)sc1C(=O)c1c(F)cccc1F [Example V76],44,89,,
C#CCN(C)CCCS(=O)(=O)N1CCC(Nc2nc(N)c(C(=O)c3c(F)cccc3F)s2)CC1 [Example V65],30,79,,
Nc1nc(NC2CCN(S(=O)(=O)CCCNCCC3CCCN3)CC2)sc1C(=O)c1c(F)cccc1F (stereo not shown) [Example V1],7,80,,
Nc1nc(NC2CCN(S(=O)(=O)CCCN3C[C@@H]4C[C@H]3CO4)CC2)sc1C(=O)c1c(F)cccc1F [Example V143],34,90,,
Nc1nc(NC2CCN(S(=O)(=O)CCCNCCCO)CC2)sc1C(=O)c1c(F)cccc1F [Example V4],19,75,,
Nc1nc(NC2CCN(S(=O)(=O)CCCNc3nnn[nH]3)CC2)sc1C(=O)c1c(F)cccc1F [Example V84],0,24,,
Nc1nc(NC2CCN(S(=O)(=O)CCCN3CCNC(=O)CC3)CC2)sc1C(=O)c1c(F)cccc1F [Example V156],0,82,,
CC(=O)NC1CCN(CCCS(=O)(=O)N2CCC(Nc3nc(N)c(C(=O)c4c(F)cccc4F)s3)CC2)C1 (stereo not shown) [Example V41],14,71,,
Cc1nnc(CN(C)CCCS(=O)(=O)N2CCC(Nc3nc(N)c(C(=O)c4c(F)cccc4F)s3)CC2)o1 [Example V176],0,73,,

Structure (SMILES),inhibition at 0.175 µM (HCT-116 cell line) [%],inhibition at 0.05 µM (CDK2/Cyclin A) [%],pIC50 (HCT-116 cell line),pKi (CDK2/Cyclin A)
CCCCC(CO)NCCCS(=O)(=O)N1CCC(Nc2nc(N)c(C(=O)c3c(F)cccc3F)s2)CC1 (stereo not shown) [Example V120],6,89,,
Nc1nc(NC2CCN(S(=O)(=O)CCCNCCCc3c[nH]cn3)CC2)sc1C(=O)c1c(F)cccc1F [Example V146],13,82,,
Nc1nc(NC2CCN(S(=O)(=O)CCCNCc3ccco3)CC2)sc1C(=O)c1c(F)cccc1F [Example V24],48,89,,
CC(C)N1CCN(CCCS(=O)(=O)N2CCC(Nc3nc(N)c(C(=O)c4c(F)cccc4F)s3)CC2)CC1 [Example V115],9,75,,
Nc1nc(NC2CCN(S(=O)(=O)CCCN3CCSCC3)CC2)sc1C(=O)c1c(F)cccc1F [Example V104],42,86,,
Nc1nc(NC2CCN(S(=O)(=O)CCCNC3CCCCCCC3)CC2)sc1Cc1c(F)cccc1F [Example V158],23,90,,
CN(C)C1CCN(CCCS(=O)(=O)N2CCC(Nc3nc(N)c(C(=O)c4c(F)cccc4F)s3)CC2)CC1 [Example V22],13,67,,
Nc1nc(NC2CCN(S(=O)(=O)CCCNCCN3CCOCC3)CC2)sc1C(=O)c1c(F)cccc1F [Example V10],3,69,,
Nc1nc(NC2CCN(S(=O)(=O)CCCNC3CCCC3)CC2)sc1C(=O)c1c(F)cccc1F [Example V75],19,88,,
CCN(CC)CCCS(=O)(=O)N1CCC(Nc2nc(N)c(C(=O)c3c(F)cccc3F)s2)CC1 [Example V57],33,77,,
Nc1nc(NC2CCN(S(=O)(=O)CCCNCCOCCO)CC2)sc1C(=O)c1c(F)cccc1F [Example V11],11,74,,
C=CCNCCCS(=O)(=O)N1CCC(Nc2nc(N)c(C(=O)c3c(F)cccc3F)s2)CC1 [Example V103],37,84,,
Nc1nc(NC2CCN(S(=O)(=O)CCCNCCc3ccncc3)CC2)sc1C(=O)c1c(F)cccc1F [Example V94],0,87,,
CN(CCC#N)CCCS(=O)(=O)N1CCC(Nc2nc(N)c(C(=O)c3c(F)cccc3F)s2)CC1 [Example V66],10,82,,
CCSCCNCCCS(=O)(=O)N1CCC(Nc2nc(N)c(C(=O)c3c(F)cccc3F)s2)CC1 [Example V129],49,88,,
Nc1nc(NC2CCN(S(=O)(=O)CCCNC3CCOCC3)CC2)sc1C(=O)c1c(F)cccc1F [Example V153],0,84,,
Nc1nc(NC2CCN(S(=O)(=O)CCCNCc3ccccc3)CC2)sc1C(=O)c1c(F)cccc1F [Example V12],69,93,,
CCCN(CCCS(=O)(=O)N1CCC(Nc2nc(N)c(C(=O)c3c(F)cccc3F)s2)CC1)CC1CC1 [Example V61],65,81,,
Nc1nc(NC2CCN(S(=O)(=O)CCCNCc3ccc[nH]c3=O)CC2)sc1C(=O)c1c(F)cccc1F [Example V169],25,76,,
CC(C)(C)c1cc(NCCCS(=O)(=O)N2CCC(Nc3nc(N)c(C(=O)c4c(F)cccc4F)s3)CC2)no1 [Example V117],0,80,,
Nc1nc(NC2CCN(S(=O)(=O)CCCNCc3ncccc3O)CC2)sc1C(=O)c1c(F)cccc1F [Example V165],6,93,,
Nc1nc(NC2CCN(S(=O)(=O)CCCNCCN3CCCC3)CC2)sc1C(=O)c1c(F)cccc1F [Example V9],13,78,,
CCCN(CCC#N)CCCS(=O)(=O)N1CCC(Nc2nc(N)c(C(=O)c3c(F)cccc3F)s2)CC1 [Example V105],0,84,,
Nc1nc(NC2CCN(S(=O)(=O)CCCNCc3ccccn3)CC2)sc1C(=O)c1c(F)cccc1F [Example V7],0,82,,
COCCCNCCCS(=O)(=O)N1CCC(Nc2nc(N)c(C(=O)c3c(F)cccc3F)s2)CC1 [Example V40],0,80,,
